Columns and labels:
CTY145 = conditions: CTY145, after 16 hours of growth
Procedure: (§1) For assaying the effects of copper ions on recombinant yeast strains, wild type and recombinant strains are grown in 5 ml of CSM media on a roller drum incubation apparatus at 30° C. for 18 to 20 hours. Cultures are diluted to an A600(absorbance of light at 600 nm) of about 0.02 in 5 ml CSM media without or with various concentrations of CuSO4 (10 μM, 50 μM, 100 μM, 250 μM, 1 mM and 2 mM) for 18 to 20 hours. The A600 of the various samples is read and recorded.
(§2) The copper sensitivity of yeast strain CTY145 was compared with that of ZMY60 by growing each strain in the presence of increasing amounts of added copper and measuring cell number at increasing times.

ZMY60 = conditions: ZMY60, after 16 hours of growth
Procedure: as §1, §2

ALG7 = conditions: Kukuruzinska et al. 1995; cited from earlier work
wild-type strain = experiment: Drug sensitivity profiling, 96 well copper sulfate x compound dilution plate; type: cell-based, S. cerevisiae; conditions: wild type control, 48 hours at 37° C.
Procedure: (§3) In one embodiment, such drug sensitivity is analyzed utilizing the copper regulated strains of the invention according to the following non-limiting method. In a single 96 well assay plate, a serial dilution of copper sulfate is created from right to left. On the same plate a serial dilution of compound is created along the opposite axis to give the final compound and copper concentrations shown in FIG. 12. Each well is inoculated with 10^3 cells ml^−1. Growth is scored by eye after 48 hours incubation at 37° C. As the copper concentration is increased, the level of target expressed is reduced. Consequently, inhibition of growth should occur at a lower compound concentration (FIG. 13, panel a). […] (FIG. 13, panel c).
(§4) In a single 96 well assay plate, a serial dilution of copper sulfate was created from right to left. On the same plate a serial dilution of compound was created along the opposite axis to give the final compound and copper concentrations. Each well was inoculated with 10^3 cells/mL. Yeast cell growth was scored by eye after 48 hours incubation at 37° C.
(§5) Plates were setup as described above and inoculated with wild-type, copper regulated ALG7 and copper regulated CHS3 strains. CHS3 encodes chitin synthase and provides a second control. Following 48 hours incubation at 37° C., plates were examined to assess growth (FIG. 16).

[1] = system: copper regulated CHS3 strain; experiment: as above; type: cell-based, S. cerevisiae; conditions: CHS3 copper regulated control, 48 hours at 37° C.
Procedure: as §3, §4, §5

[2] = system: copper regulated ALG7 strain; experiment: as above; type: cell-based, S. cerevisiae; conditions: ALG7 copper regulated cells, 48 hours at 37° C., growth scored by eye
Procedure: as §3, §4, §5

[3] = system: ALG7/alg7 heterozygous diploid S. cerevisiae strain; conditions: Giaever et al.; cited from earlier work

| Compound | highest concentration of copper at which the growth rate was maintained (CTY145) | highest concentration of copper at which the log-phase growth rate was maintained unaffected (ZMY60) | sensitivity to tunicamycin on downregulation of ALG7 expression (ALG7) | sensitivity to compound as the copper concentration was increased (wild-type strain) | sensitivity to compound as the copper concentration was increased [1] | sensitivity to compound as the copper concentration was increased [2] | sensitivity of ALG7/alg7 heterozygous diploid strain [3] |
| --- | --- | --- | --- | --- | --- | --- | --- |
| O=S(=O)([O-])[O-].[Cu+2] [copper, copper sulfate] | 1 mM | 250 μM | – | – | – | – | – |
| tunicamycin | – | – | hypersensitivity | No increase in sensitivity | No increase in sensitivity | increased sensitivity | increased sensitivity |
